Key:
IAV = assay type: cell-based, Influenza strain A/PR/8/34 (H1N1; PR8); conditions: read-out: IAV IC50
[1] = Liposome dye leakage assay; conditions: read-out: liposome EC50 (dye leakage); 200 nm liposomes filled with 50 mM carboxyfluorescein, 30 min incubation
[2] = system: SARS-CoV-2 spike pseudoparticles; assay type: cell-based; conditions: read-out: IC50 against SARS-CoV-2 spike-mediated transduction
SARS-CoV-2 virions = system: SARS-CoV-2 virions; set-up: species or system SARS-CoV-2 isolate BetaCoV/France/IDF0372/2020
SARS-CoV-2 = assay type: cell-based, SARS-CoV-2 isolate BetaCoV/France/IDF0372/2020

In the case of `O=C(O)COc1c2c(c(OCC(=O)O)c3c1C1CC3c3cc4c(cc31)C1CC4c3ccccc31)C1CC2c2cc3c(cc21)C1CC3c2ccccc21` [CLR05], the IC50 (IAV) is reported as 70.3 µM, the EC50 [1] is reported as 121 µM and the IC50 [2] is reported as 33 µM. The “morphology of treated SARS-CoV-2 virions (TEM)” value (SARS-CoV-2 virions) was “largely disrupted”, the “inhibition of virus infection” value (SARS-CoV-2) was roughly 70% and the IC50 (SARS-CoV-2; read-out: SARS-CoV-2 IC50) was 167 µM.
